Measured values from patent publication US20120238488A1, “COMPOUNDS AND METHODS FOR TREATING NEOPLASIA” (priority 2009, published 2012).

What was measured:
[1] = test system: PCJ (Prostate); experiment: SRB assay, PCJ; assay type: cell-based; conditions: Homo sapiens, 48 h
Description: (§1) SRB assays were performed according to standard National Cancer Institute Guidelines. Briefly, human tumor cells from different cancer panels were seeded into 96 well plates in 100 μL (plating densities ranging from 5-40,000 cells/well depending on the doubling time of individual cell lines) in serum-containing media for twenty-four hours prior to the addition of the compounds to be assayed. After 24 hours, one plate of each cell line was fixed in situ with trichloroacetic acid (TCA). The fixed slides were used to determine the cell population for each cell line at the time of drug addition (Tz). Each compound to be tested was solubilized in DMSO and the desired concentration was then added to the medium and diluted serially 1:10 to provide a total of five or ten drug concentrations plus control (in a final volume of 200 μL). The starting dose before any dilution was 100 uM for all compounds.
(§2) Following drug addition, each culture was incubated for forty-eight hours. The assay was terminated with the addition of cold TCA. The supernatant was discarded, and the plates were washed with tap water and air dried. Sulforhodamine B (SRB) solution was then added to each well. After staining, the bound stain was solubilized and the absorbance was read on an automated plate reader at a wavelength of 515 nm.
(§3) Using the absorbance measurements [time zero, (Tz), control growth, (C), and test growth in the presence of drug at the ten concentration levels (Ti)], the percentage growth was calculated at each of the drug concentrations levels. Percentage growth inhibition was calculated as:
(§4) [(Ti−Tz)/(C−Tz)]×100 for concentrations for which Ti>/=Tz
(§5) [(Ti−Tz)/Tz]×100 for concentrations for which Ti<Tz.
(§6) Three dose response parameters were calculated for each experimental agent. Growth inhibition of 50% (GI50) was calculated from [(Ti−Tz)/(C−Tz)]×100=50, which was the drug concentration resulting in a 50% reduction in the net protein increase (as measured by SRB staining) in control cells during the drug. The drug concentration resulting in total growth inhibition (TGI) was calculated from Ti=Tz. The LC50 (concentration of drug resulting in a 50% reduction in the measured protein at the end of the drug treatment as compared to that at the beginning) indicating a net loss of cells following treatment was calculated from [(Ti−Tz)/Tz]×100=−50.
(§7) Values were calculated for each of these three parameters when the level of activity was reached; however, if the effect was not reached or was exceeded, the value for that parameter was expressed as greater or less than the maximum or minimum concentration tested.
(§8) Table 4 summarizes results characterizing the effects of compound Nos. 120, 12, 61, 1, and 56 on GI50, which measures the cell growth inhibitory power of the compound, TGI, which measures cytostatic effect (TGI) and LC50, which signifies cytotoxic effect. Each of these parameters in Table 4 was calculated in a sulforhodamine B (SRB) assay, which provides a colorimetric measure of a compound's anti-cancer activity. SRB assays were performed with compounds of the invention in 22 different cell lines (shaded in light gray in Table 4), which represent nine different tumor panels (lung, melanoma, ovary, prostate, CNS, breast, pancreas colon and renal). Ouabain and digoxin were used as controls. Paclitaxel was added as a non-Na^+K^+-ATPase inhibitor control.

[2] = test system: ADRRES (Ovary); experiment: SRB assay, ADRRES (multidrug resistant NCI-ADR-RES); assay type: cell-based, human
Description: NCI-ADR-RES cells have been classified as ovarian cancer cells by the National Cancer Institute.
as §1, §2, §3, §4, §5, §6, §7, §8
Table 4 also presents results with Compound Nos. 120, 12, 61, 1, and 56 in a well characterized drug resistant cell line, NCI-ADR-RES, that expresses high levels of MDR1 and P-glycoprotein.

[3] = test system: DU145 (Prostate); experiment: SRB assay, DU145; assay type: cell-based, human
Description: as §1, §2, §3, §4, §5, §6, §7, §8

[4] = test system: OVCAR5 (Ovary); experiment: SRB assay, OVCAR5; assay type: cell-based, human
Description: as §1, §2, §3, §4, §5, §6, §7, §8

[5] = test system: MB435 (Melanoma); experiment: SRB assay, MB435; assay type: cell-based, human; conditions: 48 h
Description: as §1, §2, §3, §4, §5, §6, §7, §8

[6] = test system: ERVK (Lung); experiment: SRB assay, ERVK; assay type: cell-based, human; conditions: 48 h
Description: as §1, §2, §3, §4, §5, §6, §7, §8

[7] = test system: HCT116 (Colon); experiment: SRB assay, HCT116; assay type: cell-based; conditions: Homo sapiens
Description: as §1, §2, §3, §4, §5, §6, §7, §8

[8] = test system: Na+/K+-ATPase (Adenosine 5′-Triphosphatase isolated from porcine cerebral cortex); experiment: Na+/K+-ATPase inhibitory activity, colorimetric Adenosine 5'-Triphosphatase Enzymatic Assay; assay type: biochemical
Description: The inhibitory effect of a compound of the invention on ATPase activity was assessed in vitro using the colorimetric Adenosine 5′-Triphosphatase Enzymatic Assay of Sigma (St. Louis, Mo.) according to the manufacturer's instructions. This assay utilizes Adenosine 5′-Triphosphatase isolated from porcine cerebral cortex. Each reaction was performed in a final volume of 250 μl using 0.5 units/ml enzyme in the presence of different inhibitors. […] IC50 values were determined using the Origin® program software (OriginLab, Northampton, Mass.).

[9] = test system: A549 (Lung); experiment: SRB assay, A549; assay type: cell-based, human
Description: as §1, §2, §3, §4, §5, §6, §7, §8

[10] = test system: CAKJ1 (Renal); experiment: SRB assay, CAKJ1; assay type: cell-based, human; conditions: 48 h
Description: as §1, §2, §3, §4, §5, §6, §7, §8

[11] = test system: SKMEL28 (Melanoma); experiment: SRB assay, SKMEL28; assay type: cell-based, human
Description: as §1, §2, §3, §4, §5, §6, §7, §8

[12] = test system: OVCAR3 (Ovary); experiment: SRB assay, OVCAR3; assay type: cell-based, human
Description: as §1, §2, §3, §4, §5, §6, §7, §8

[13] = test system: SF268 (CNS); experiment: SRB assay, SF268; assay type: cell-based; conditions: Homo sapiens
Description: as §1, §2, §3, §4, §5, §6, §7, §8

C[C@]12CCC(=NOC3CCNC3)C=C1CCC1C2CC[C@]2(C)C(=O)CCC12 (stereo partly drawn) [Compound 61, (10R,13S)-10,13-dimethyl-3-(pyrrolidin-3-yloxyimino)-2,3,7,8,9,10,11,12,13,14,15,16-dodecahydro-1H-cyclopenta[a]phenanthren-17(6H)-one]
CC50 ([1]; read-out: LC50): 7420 nM | GI50 ([1]; PCJ, SRB): 281 nM | IC (TGI) ([1]; PCJ, SRB): 1810 nM | TGI ([2]; ADRRES, SRB, 48 h): 1015.6 nM | CC50 ([2]; Homo sapiens, NCI/ADR-RES, 48 h, read-out: LC50): 6070 nM | GI50 ([2]; Homo sapiens, NCI/ADR-RES, ADRRES, SRB, 48 h): 564 nM | anti-tumor action in multidrug resistant cell line NCI-ADR-RES ([2]; SRB, cells express high levels of MDR1 and P-glycoprotein): potent anti-tumor action | TGI ([3]; DU145, SRB, 48 h): 626.2 nM | CC50 ([3]; Homo sapiens, DU-145, 48 h, read-out: LC50): 895 nM | GI50 ([3]; Homo sapiens, DU-145, DU145, SRB, 48 h): 357 nM | CC50 ([4]; Homo sapiens, OVCAR-5, 48 h, read-out: LC50): 9060 nM | GI50 ([4]; Homo sapiens, OVCAR-5, OVCAR5, SRB, 48 h): 3850 nM | TGI ([4]; OVCAR5, SRB, 48 h): 6454.9 nM | CC50 ([5]; Homo sapiens, read-out: LC50): 8200 nM | GI50 ([5]; Homo sapiens, MB435, SRB): 649 nM | TGI ([5]; MB435, SRB): 3378.4 nM | TGI ([6]; ERVK, SRB): 2471 nM | CC50 ([6]; Homo sapiens, read-out: LC50): 6840 nM | GI50 ([6]; Homo sapiens, ERVK, SRB): 493 nM | CC50 ([7]; HCT-116, 48 h, read-out: LC50): 9260 nM | GI50 ([7]; HCT-116, HCT116, SRB, 48 h): 286 nM | IC (TGI) ([7]; HCT-116, HCT116, SRB, 48 h): 1310 nM | Na+K+ ATPase inhibitory activity (in words) [8]: strong Na+K+ ATPase inhibitory activities | IC50 ([8]; 0.5 units/ml enzyme, five concentrations 10^−5 to 10^−9M, read-out: Na+ K+ Inhibitory Activity (IC50)): 496 nM | TGI ([9]; A549, SRB, 48 h): 514.9 nM | CC50 ([9]; Homo sapiens, A549, 48 h, read-out: LC50): 823 nM | GI50 ([9]; Homo sapiens, A549, SRB, 48 h): 207 nM | TGI ([10]; CAKJ1, SRB): 1251.6 nM | CC50 ([10]; Homo sapiens, read-out: LC50): 6650 nM | GI50 ([10]; Homo sapiens, CAKJ1, SRB): 268 nM | CC50 ([11]; Homo sapiens, SK-MEL-28, 48 h, read-out: LC50): 12300 nM | GI50 ([11]; Homo sapiens, SK-MEL-28, SKMEL28, SRB, 48 h): 993 nM | TGI ([11]; SKMEL28, SRB, 48 h): 6623 nM | CC50 ([12]; Homo sapiens, OVCAR-3, 48 h, read-out: LC50): 6120 nM | GI50 ([12]; Homo sapiens, OVCAR-3, OVCAR3, SRB, 48 h): 355 nM | TGI ([12]; OVCAR3, SRB, 48 h): 800.4 nM | CC50 ([13]; SF-268, 48 h, read-out: LC50): 8030 nM | GI50 ([13]; SF-268, SF268, SRB, 48 h, read-out: GI50): 567 nM | IC (TGI) ([13]; SF-268, SF268, SRB, 48 h, read-out: TGI): 3020 nM
